From patent publication US20090257979A1, “Novel Inhibitors of Hepatitis C Virus Replication” (INTERMUNE, INC., priority 2008, published 2009)

Legend:
HCV Replicon = HCV Replicon inhibition; type: cell-based; details: Hepatitis C virus
NS5B polymerase protein = target: T1, NS5B polymerase protein (Hepatitis C virus genotype 1a, UniProt P27958); assay: biochemical; details: pre-incubated 37° C. 30 minutes; RdRp reaction 90 minutes at 37° C.; read-out: HCV NS5B inhibition EC50
T1 construct: pre-incubated with the RNA template and NS5B polymerase protein; Replizyme
T1 sequence (P27958 2421-3011): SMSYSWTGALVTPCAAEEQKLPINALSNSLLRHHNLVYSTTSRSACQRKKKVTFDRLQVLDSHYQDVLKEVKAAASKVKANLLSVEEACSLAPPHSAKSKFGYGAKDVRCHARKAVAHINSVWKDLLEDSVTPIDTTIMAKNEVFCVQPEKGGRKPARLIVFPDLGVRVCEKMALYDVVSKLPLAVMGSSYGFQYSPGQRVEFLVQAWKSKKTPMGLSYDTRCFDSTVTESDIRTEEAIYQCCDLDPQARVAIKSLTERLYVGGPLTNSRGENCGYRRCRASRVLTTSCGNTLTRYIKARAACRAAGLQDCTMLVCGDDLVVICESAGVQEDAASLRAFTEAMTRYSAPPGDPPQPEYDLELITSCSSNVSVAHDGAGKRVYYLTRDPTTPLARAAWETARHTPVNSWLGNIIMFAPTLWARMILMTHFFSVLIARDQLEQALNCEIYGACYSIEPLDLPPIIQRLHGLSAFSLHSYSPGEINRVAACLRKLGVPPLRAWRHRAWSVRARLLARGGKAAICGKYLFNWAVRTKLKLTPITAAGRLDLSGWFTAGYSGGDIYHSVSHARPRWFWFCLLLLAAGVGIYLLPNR
Experimental: The compounds were tested in the Replizyme HCV heterotemplate radioactive RNA-dependent RNA-polymerase (RdRp) assay. The test compounds were pre-incubated with the RNA template and NS5B polymerase protein at 37° C. for 30 minutes. The RdRp reaction was initiated with the addition of the NTPs to the buffer-NS5B-compound mix, and was allowed to proceed for 90 minutes at 37° C. Control reactions included: no enzyme, 5% DMSO (test compound solvent), no compound/solvent, Cordycepin-TP and HCV-796 (IC50 values used as a reference inhibition). Radioactive products were collected by applying the stopped reaction to DE-81 paper, air dried prior to washing with buffer comprising NaH2PO4 and sodium pyrophosphate to remove unincorporated ^32P-GTP in the NTP mix, and rinsed with dH2O followed by 100% ethanol. The DE-81 paper was air dried, squares cut out and placed in scintillation tubes for counting.

Compound	EC50 (HCV Replicon)	EC50 (NS5B polymerase protein)
CS(=O)(=O)Nc1ccc2c(c1)S(=O)(=O)N=C(c1c(O)n3ccccc3c(Cc3ccccc3F)c1=O)N2 [Compound 237, N-{3-[1-(2-Fluoro-benzyl)-4-hydroxy-2-oxo-2H-quinolizin-3-yl]-1,1-dioxo-1,4-dihydro-1lambda′6′-benzo[1,2,4]thiadiazin-7-yl}-methanesulfonamide]	< 100 nM	< 100 nM
CC(C)CCn1c(=O)c(C2=NS(=O)(=O)c3cc(NS(C)(=O)=O)ccc3N2)c(O)n2nc(C3CC3)cc12 [Compound 234, N-{3-[2-cyclopropyl-7-Hydroxy-4-(3-methyl-butyl)-5-oxo-4,5-dihydro-pyrazolo[1,5-a]pyrimidin-6-yl]-1,1-dioxo-1,4-dihydro-1lambda*6*-benzo[1,2,4]thiadiazin-7-yl}-methanesulfonamide]	< 100 nM	10000 to 50000 nM
CC(C)CCc1c(=O)c(C2=NS(=O)(=O)c3cc(NS(C)(=O)=O)ccc3N2)c(O)n2ccccc12 [Compound 225]	< 100 nM	< 100 nM
